Measured values taken from US10292972B1, “Pharmaceutical composition for treating cancer and a method thereof” (King Abdulaziz University, priority 2017, dated 2019).

Legend:
MCF7 breast cancer cells [1] = experiment: RNA-Seq gene expression profiling of isopicrinine-treated MCF7 cells; format: cell-based, human; settings: for number of upregulated genes / number of downregulated genes: vs DMSO-treated control, P value <0.05; for number of downregulated genes: fold change <−1
Experimental: MCF7 cells (1.6×10^5 cells) were treated with varying doses (sub-lethal) of purified isopicrinine i.e., 30 μM and 150 μM, in triplicates, for 18 hrs at 37° C. Total RNA was extracted using TRIzol reagent. Gene expression analyses of drug-treated MCF7 cells in the presence of sub-lethal concentrations of isopicrinine were performed using Illumina HiSeq. Each RNA was ribo-depleted (Ribo-Zero, Epicentre) prior to cDNA libarary preparation (ScriptSeq epicenter). Each cDNA was separately barcode tagged during library preparation, and sequenced in multiplex generating approximately >40 million 100 bp reads per sample for the mammalian cell line. The Illumina reads were mapped to their respective assembled reference transcriptome sequence using the mapping software TopHat and Cufflinks (Trapnell, C., Pachter, L., Salzberg, S. L. 2009. TopHat: discovering splice junctions with RNA-Seq. Bioinformatics, May 1; 25(9):1105-11. doi: 10.1093/bioinformatics/btp120, incorporated herein by reference in its entirety). Illumina read abundances mapping to each reference contig was normalized using the RPKM (reads per Kb per million reads) calculation. Differentially expressed transcripts were identified and functionally annotated using a variety of statistical analyses available via bioconductor in R language (Durinck, S., Moreau, Y., Kasprzyk, A., Davis, S., De Moor, B., Brazma, A., Huber, W. 2005. BioMart and Bioconductor: a powerful link between biological databases and microarray data analysis. Bioinformatics, 21(16), 3439-3440. doi: 10.1093/bioinformatics/bti525, incorporated herein by reference in its entirety). Clusters of differentially expressed and cycling transcripts were annotated to identify over-represented GO/KEGG pathways (Kanehisa, M., Goto, S., Sato, Y., Furumichi, M., Tanabe, M., 2012. KEGG for integration and interpretation of large-scale molecular data sets. Nucleic Acids Res., 40 (Database issue), D109-14. doi: 10.1093/nar/gkr988, incorporated herein by reference in its entirety).
MCF7 cell line was treated with sub-lethal doses of 30 μM and 150 μM of isopicrinine. […] RNA-Seq transcription profiling was performed for analyzing the transcriptome profile in alkaloid treated MCF7 cells in order to evaluate the pharmacological effects of the new alkaloid isolated from Rhazya stricta. To identify the differentially regulated/expressed genes after treatment with isopicrinine, RNA was extracted from alkaloid treated MCF7 cells (30 μM and 150 μM doses) and DMSO-treated control cells and RNA-Seq experiment was carried out. The sequencing data were compared and analyzed to identify the differentially expressed genes in mammalian cells after treatment with isopicrinine.

MCF7 breast cancer cells [2] = experiment: as above; format: cell-based, human; settings: MCF7, 30 μM and 150 μM
[3] = MCF7, vs DMSO control, Cell divsion, dose not given
[4] = MCF7, vs DMSO control, Chromosone Organization, dose not given
[5] = MCF7, vs DMSO control, Cytoskeleton, dose not given
[6] = MCF7, vs DMSO control, DNA repair, dose not given
[7] = MCF7, vs DMSO control, DNA replication, dose not given
[8] = MCF7, vs DMSO control, Induction of apoptosis, dose not given
[9] = MCF7, vs DMSO control, Regulation of cell growth, dose not given
[10] = MCF7, vs DMSO control, Regulation of transcription, dose not given
[11] = MCF7, vs DMSO control, Response to DNA damage stimulus, dose not given

C/C=C1\CN2[C@H]3C[C@@H]1[C@@H](C(=O)OC)[C@]14C[C@H]2O[C@]31Nc1ccccc14 [isopicrinine]
expression of Mxi1 gene (MCF7 breast cancer cells [1]; MCF7): significantly upregulated | expression of cell cycle and cell proliferation genes (CDC6, CDK1, CDCA5, DLGAP5, NUSAP1, KIF23, PRC1, BIRC5, AURKB, NDC80, CDC45) (MCF7 breast cancer cells [1]; MCF7, 30 μM): not affected | cytotoxicity at sub-lethal doses (MCF7 breast cancer cells [1]; MCF7, 30 μM and 150 μM, 18 hrs): No cytotoxicity was detected | number of upregulated genes (MCF7 breast cancer cells [1]; MCF7, 30 μM): 148 genes | number of downregulated genes (MCF7 breast cancer cells [1]; MCF7, 30 μM): 64 genes | expression of cell cycle and cell proliferation genes (CDC6, CDK1, CDCA5, DLGAP5, NUSAP1, KIF23, PRC1, BIRC5, AURKB, NDC80, CDC45) (MCF7 breast cancer cells [1]; MCF7, 150 μM): significantly downregulated | number of downregulated genes (MCF7 breast cancer cells [1]; MCF7, 150 μM): 59 genes | number of upregulated genes (MCF7 breast cancer cells [1]; MCF7, 150 μM, fold change >1): 36 genes | expression of cell division and mitosis genes (PTTG1, DLGAP5, Cdc6, NDC80, KIF15, KIF23, PRC1, NUSAP1, Aurora B kinase, CDCA5, ATAD2) (MCF7 breast cancer cells [1]; MCF7, high dose): downregulated | expression of pro-apoptotic gene PUMA (BBC3) (MCF7 breast cancer cells [1]; MCF7, sub-lethal dose, FIG. 5): upregulated | expression of survivin (BIRC5) (MCF7 breast cancer cells [1]; MCF7, sub-lethal doses): Downregulation | log2 (fold change) ASPM (MCF7 breast cancer cells [1]; [3]): −1.3045 | log2 (fold change) AURKB (MCF7 breast cancer cells [1]; [3]): −1.646 | log2 (fold change) BIRC5 (MCF7 breast cancer cells [1]; [3]): −0.9572 | log2 (fold change) CDC6 (MCF7 breast cancer cells [1]; [3]): −2.322 | log2 (fold change) CDCA5 (MCF7 breast cancer cells [1]; [3]): −1.551 | log2 (fold change) CDK1 (MCF7 breast cancer cells [1]; [3]): −1.149 | log2 (fold change) FBXO5 (MCF7 breast cancer cells [1]; [3]): −1.067 | log2 (fold change) KIF23 (MCF7 breast cancer cells [1]; [3]): −0.905 | log2 (fold change) NCAPG (MCF7 breast cancer cells [1]; [3]): −1.314 | log2 (fold change) NCAPH (MCF7 breast cancer cells [1]; [3]): −1.018 | log2 (fold change) NDC80 (MCF7 breast cancer cells [1]; [3]): −1.343 | log2 (fold change) NUSAP1 (MCF7 breast cancer cells [1]; [3]): −1.539 | log2 (fold change) PRC1 (MCF7 breast cancer cells [1]; [3]): −1.527 | log2 (fold change) PTTG1 (MCF7 breast cancer cells [1]; [3]): −1.05 | log2 (fold change) SGOL1 (MCF7 breast cancer cells [1]; [3]): −1.044 | log2 (fold change) DLGAP5 (MCF7 breast cancer cells [1]; [4]): −1.263 | log2 (fold change) ESPL1 (MCF7 breast cancer cells [1]; [4]): −1.9647 | log2 (fold change) H2AFZ (MCF7 breast cancer cells [1]; [4]): −0.952 | log2 (fold change) HIST1H1B (MCF7 breast cancer cells [1]; [4]): −2.278 | log2 (fold change) HIST1H2AJ, HIST1H2AK (MCF7 breast cancer cells [1]; [4]): −2.034 | log2 (fold change) HIST1H2AM, HIST1H3J (MCF7 breast cancer cells [1]; [4]): −2.034 | log2 (fold change) HIST1H2BL (MCF7 breast cancer cells [1]; [4]): −2.032 | log2 (fold change) HIST2H2AA4, HIST2H2AC (MCF7 breast cancer cells [1]; [4]): −1.505 | log2 (fold change) HIST2H2AB (MCF7 breast cancer cells [1]; [4]): −2.144 | log2 (fold change) HIST2H2BF (MCF7 breast cancer cells [1]; [4]): −1.757 | log2 (fold change) HIST2H3C (MCF7 breast cancer cells [1]; [4]): −2.716 | log2 (fold change) HIST2H3PS2 (MCF7 breast cancer cells [1]; [4]): −1.3321 | log2 (fold change) HIST2H4A (MCF7 breast cancer cells [1]; [4]): −2.138 | log2 (fold change) AGBL2 (MCF7 breast cancer cells [1]; [5]): 2.627 | log2 (fold change) DLG2 (MCF7 breast cancer cells [1]; [5]): 2.268 | log2 (fold change) DRP2 (MCF7 breast cancer cells [1]; [5]): 2.047 | log2 (fold change) KRT81 (MCF7 breast cancer cells [1]; [5]): 1.797 | log2 (fold change) PTP4A1 (MCF7 breast cancer cells [1]; [5]): 1.331 | log2 (fold change) BRCA1 (MCF7 breast cancer cells [1]; [6]): −1.076 | log2 (fold change) EXO1 (MCF7 breast cancer cells [1]; [6]): −1.784 | log2 (fold change) RAD51AP1 (MCF7 breast cancer cells [1]; [6]): −1.652 | log2 (fold change) UHRF1 (MCF7 breast cancer cells [1]; [6]): −1.1337 | log2 (fold change) CDC45 (MCF7 breast cancer cells [1]; [7]): −1.801 | log2 (fold change) MCM3 (MCF7 breast cancer cells [1]; [7]): −1.644 | log2 (fold change) MCM4 (MCF7 breast cancer cells [1]; [7]): −1.522 | log2 (fold change) MCM5 (MCF7 breast cancer cells [1]; [7]): −1.878 | log2 (fold change) MCM6 (MCF7 breast cancer cells [1]; [7]): −1.423 | log2 (fold change) MCM7 (MCF7 breast cancer cells [1]; [7]): −1.716 | log2 (fold change) MCM8 (MCF7 breast cancer cells [1]; [7]): −1.013 | log2 (fold change) MCM10 (MCF7 breast cancer cells [1]; [7]): −1.321 | log2 (fold change) RFC3 (MCF7 breast cancer cells [1]; [7]): −1.142 | log2 (fold change) RRM2 (MCF7 breast cancer cells [1]; [7]): −1.2797 | log2 (fold change) TOP2A (MCF7 breast cancer cells [1]; [7]): −1.662 | log2 (fold change) BBC3 (MCF7 breast cancer cells [1]; [8]): 1.481 | log2 (fold change) CDKN1A (MCF7 breast cancer cells [1]; [8]): 1.119 | log2 (fold change) INHBA (MCF7 breast cancer cells [1]; [8]): 1.026 | log2 (fold change) MAGED1 (MCF7 breast cancer cells [1]; [8]): 0.8954 | log2 (fold change) LTBP4 (MCF7 breast cancer cells [1]; [9]): 1.504 | log2 (fold change) SPP1 (MCF7 breast cancer cells [1]; [9]): 1.075 | log2 (fold change) VGF (MCF7 breast cancer cells [1]; [9]): 0.9472 | log2 (fold change) ATAD2 (MCF7 breast cancer cells [1]; [10]): −1.388 | log2 (fold change) ATAD5 (MCF7 breast cancer cells [1]; [10]): −1.628 | log2 (fold change) ATF3 (MCF7 breast cancer cells [1]; [10]): 1.3961 | log2 (fold change) BRIP1 (MCF7 breast cancer cells [1]; [10]): −1.416 | log2 (fold change) EGR1 (MCF7 breast cancer cells [1]; [10]): 1.39 | log2 (fold change) FHL2 (MCF7 breast cancer cells [1]; [10]): 1.024 | log2 (fold change) MDM2 (MCF7 breast cancer cells [1]; [10]): 1.725 | log2 (fold change) MXI1 (MCF7 breast cancer cells [1]; [10]): 1.118 | log2 (fold change) MYBL2 (MCF7 breast cancer cells [1]; [10]): −1.231 | log2 (fold change) NRG1 (MCF7 breast cancer cells [1]; [10]): 0.8825 | log2 (fold change) BTG2 (MCF7 breast cancer cells [1]; [11]): 1.485 | log2 (fold change) CCND1 (MCF7 breast cancer cells [1]; [11]): 1.49 | log2 (fold change) DDB2 (MCF7 breast cancer cells [1]; [11]): 1.191 | log2 (fold change) GADD45A (MCF7 breast cancer cells [1]; [11]): 1.333 | cell proliferation at low doses compared to DMSO control (MCF7 breast cancer cells [2]): prevented further cell proliferation
